SMILES strings stand for the structures.

The results in this text go back to patent publication US10227357B2, “Compounds and methods for kinase modulation, and indications therefor” (Plexxikon Inc., priority 2012, dated 2019).

The target of one test is T1, c-kit kinase (Homo sapiens, UniProt P10721).
T1 construct: The c-kit (or kinase domain thereof) is an active kinase in AlphaScreen; poly-Histidine tag (in-house protein only) (cleaved yes); host or cells: E. coli BL21(DE3)RIL, co-expressed with PTP1B
Briefly: c-Kit biochemical assay, AlphaScreen, 10 μM ATP. The note with it: c-kit biochemical inhibitory activity; read-out: Biochemical activity (IC50 μM) Kit. The procedure, abridged:
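His-tagged c-Kit expressed in E. coli with co-expressed PTP1B (dephosphorylated), tag removed; 0.1 ng per reaction with biotinylated-peptide substrate in 50 mM HEPES pH 7.2, 5 mM MgCl2, 5 mM MnCl2, 5% DMSO, 10 μM ATP, 1 h at room temperature. Phosphorylation detected by AlphaScreen (streptavidin donor, PY20 acceptor beads); IC50 from 8-point 1:3 dilution series.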
A general note: Bead proximity is the source of the signal in Alpha formats.

The next test has as its target T2, c-kit mutant D816V (Homo sapiens, UniProt P10721, D816V/DEL694-753).
T2 construct: residues 551-934, kinase insertion domain residues 694-753 deleted; 6x-histidine (N); made in house; host or cells: E. coli Arctic Express (DE3) RIL (Stratagene)
The test can be described thus: c-Kit mutant D816V biochemical assay, AlphaScreen. The note with it: c-kit D816V biochemical inhibitory activity; read-out: Biochemical activity (IC50 μM) Kit D816V. The procedure, abridged: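 Purified His-tagged c-Kit D816V (E. coli-expressed) assayed in 25 mM HEPES pH 7.2 with Mg/Mn, 5% DMSO and 10 μM ATP, 30 min at room temperature, 8-point 1:3 dilutions. Phosphorylation detected by AlphaScreen with streptavidin donor and PY20 acceptor beads; IC50 from signal versus concentration.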

T1 sequence (P10721 26-976): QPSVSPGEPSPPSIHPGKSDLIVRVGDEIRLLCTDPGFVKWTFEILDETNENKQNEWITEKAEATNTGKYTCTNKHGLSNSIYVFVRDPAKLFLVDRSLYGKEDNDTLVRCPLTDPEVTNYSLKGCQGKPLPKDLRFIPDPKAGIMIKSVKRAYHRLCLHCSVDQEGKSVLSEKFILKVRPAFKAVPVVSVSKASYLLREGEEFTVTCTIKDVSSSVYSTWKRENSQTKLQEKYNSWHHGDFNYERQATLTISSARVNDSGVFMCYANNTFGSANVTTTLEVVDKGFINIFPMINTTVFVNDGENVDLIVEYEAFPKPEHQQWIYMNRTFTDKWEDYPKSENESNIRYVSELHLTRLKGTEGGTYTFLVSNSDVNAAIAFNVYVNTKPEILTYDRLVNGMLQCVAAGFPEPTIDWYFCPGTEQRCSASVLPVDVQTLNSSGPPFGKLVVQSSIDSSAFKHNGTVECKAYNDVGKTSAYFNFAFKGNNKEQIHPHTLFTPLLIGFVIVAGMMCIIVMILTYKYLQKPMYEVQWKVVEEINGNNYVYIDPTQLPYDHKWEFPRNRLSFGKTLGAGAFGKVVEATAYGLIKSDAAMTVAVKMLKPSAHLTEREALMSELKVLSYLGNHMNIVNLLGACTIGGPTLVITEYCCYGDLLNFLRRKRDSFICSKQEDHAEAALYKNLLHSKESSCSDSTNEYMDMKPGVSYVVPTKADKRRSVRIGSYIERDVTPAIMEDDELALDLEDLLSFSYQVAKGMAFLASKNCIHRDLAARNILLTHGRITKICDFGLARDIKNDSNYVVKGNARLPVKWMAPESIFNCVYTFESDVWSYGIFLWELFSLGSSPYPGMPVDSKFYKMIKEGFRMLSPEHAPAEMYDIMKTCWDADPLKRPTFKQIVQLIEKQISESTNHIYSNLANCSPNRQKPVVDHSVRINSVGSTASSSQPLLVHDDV
T2 sequence (P10721 with tags, fused parts or gaps DEL694-753/D816V): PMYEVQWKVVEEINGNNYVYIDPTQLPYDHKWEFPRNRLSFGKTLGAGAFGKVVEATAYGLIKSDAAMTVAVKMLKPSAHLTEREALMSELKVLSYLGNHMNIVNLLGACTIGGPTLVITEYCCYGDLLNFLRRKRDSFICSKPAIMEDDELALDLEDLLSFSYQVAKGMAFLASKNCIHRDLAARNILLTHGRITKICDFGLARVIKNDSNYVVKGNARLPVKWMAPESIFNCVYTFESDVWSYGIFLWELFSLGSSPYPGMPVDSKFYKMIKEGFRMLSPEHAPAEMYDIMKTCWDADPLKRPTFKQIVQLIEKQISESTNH

Regarding `CN(C)c1ncc(-c2cc3c(N4CCC(NS(=O)(=O)c5ccc(OC(F)(F)F)cc5)CC4)ncnc3[nH]2)s1` [P-0673, N-[1-[6-[2-(dimethylamino)thiazol-5-yl]-7H-pyrrolo[2,3-d]pyrimidin-4-yl]-4-piperidyl]-4-(trifluoromethoxy)benzenesulfonamide], the IC50 on c-kit kinase and on c-kit mutant D816V was 1 to 10 µM each time.
Consider `CCc1ccc(S(=O)(=O)NC2CCN(c3ncnc4[nH]c(C)cc34)CC2)cc1` [P-0674, 4-ethyl-N-[1-(6-methyl-7H-pyrrolo[2,3-d]pyrimidin-4-yl)-4-piperidyl]benzenesulfonamide], for which the values for the IC50 at c-kit kinase and at c-kit mutant D816V were 10 to 200 µM and 1 to 10 µM, respectively.
With `Cc1ccc(S(=O)(=O)NC2CCN(c3ncnc4[nH]c(C)cc34)CC2)cc1` [P-0675, 4-methyl-N-[1-(6-methyl-7H-pyrrolo[2,3-d]pyrimidin-4-yl)-4-piperidyl]benzenesulfonamide], the IC50 (in general, the concentration that gives 50% inhibition) at c-kit kinase is 10 to 200 µM; at c-kit mutant D816V, 1 to 10 µM.
With `CCc1ccc(S(=O)(=O)NC2CCN(c3ncnc4[nH]c(-c5cnn(C)c5)cc34)CC2)cc1` [P-0676, 4-ethyl-N-[1-[6-(1-methylpyrazol-4-yl)-7H-pyrrolo[2,3-d]pyrimidin-4-yl]-4-piperidyl]benzenesulfonamide], the IC50 on c-kit kinase and at c-kit mutant D816V was 0.0001 to 1 µM in each case.
Take `CC(C)(NC(=O)N1CC=C(c2ncnc3cc(-c4ccc(F)cc4)sc23)CC1)c1ccccc1` [P-0679, 4-[6-(4-fluorophenyl)thieno[3,2-d]pyrimidin-4-yl]-N-(1-methyl-1-phenyl-ethyl)-3,6-dihydro-2H-pyridine-1-carboxamide]: the IC50 fell in the range of 1 to 10 µM at c-kit kinase and 0.0001 to 1 µM on c-kit mutant D816V.
The like results for `COc1cccc([C@H](C)NC(=O)N2CCN(c3ncnc4cc(N5CCC(F)(F)CC5)sc34)CC2(C)C)c1` [P-0680, 4-[6-(4,4-difluoro-1-piperidyl)thieno[3,2-d]pyrimidin-4-yl]-N-[(1S)-1-(3-methoxyphenyl)ethyl]-2,2-dimethyl-piperazine-1-carboxamide] were, in that order, 1 to 10 µM and 0.0001 to 1 µM.
Take `CCOC(=O)N1CCN(c2cc3ncnc(N4CCN(C(=O)N[C@@H](C)c5cccc(OC)c5)C(C)(C)C4)c3s2)CC1` [P-0681, ethyl 4-[4-[4-[[(1S)-1-(3-methoxyphenyl)ethyl]carbamoyl]-3,3-dimethyl-piperazin-1-yl]thieno[3,2-d]pyrimidin-6-yl]piperazine-1-carboxylate]: the figures for the IC50 at c-kit kinase and at c-kit mutant D816V were 1 to 10 µM and 0.0001 to 1 µM, respectively.
Regarding `COc1cccc([C@H](C)NC(=O)N2CCN(c3ncnc4[nH]c(C)cc34)C[C@H]2C)c1` [P-0683, (2R)-N-[(1S)-1-(3-methoxyphenyl)ethyl]-2-methyl-4-(6-methyl-7H-pyrrolo[2,3-d]pyrimidin-4-yl)piperazine-1-carboxamide], the IC50 at c-kit kinase and at c-kit mutant D816V was 10 to 200 µM each time.
`Cc1cc2c(N3CCN(C(=O)N[C@@H](C)c4cccc(F)c4)[C@H](C)C3)ncnc2[nH]1` [P-0684, (2R)-N-[(1S)-1-(3-fluorophenyl)ethyl]-2-methyl-4-(6-methyl-7H-pyrrolo[2,3-d]pyrimidin-4-yl)piperazine-1-carboxamide]: the IC50 was in the range of 10 to 200 µM on c-kit kinase and 0.0001 to 1 µM at c-kit mutant D816V.
On the same counts, the results for `COc1cccc([C@H](C)NC(=O)N2CCN(c3ncnc4[nH]c(-c5ccc(C#N)cc5)cc34)CC2(C)C)c1` [P-0687, 4-[6-(4-cyanophenyl)-7H-pyrrolo[2,3-d]pyrimidin-4-yl]-N-[(1S)-1-(3-methoxyphenyl)ethyl]-2,2-dimethyl-piperazine-1-carboxamide] are 10 to 200 µM and 1 to 10 µM.
With `C[C@H](NC(=O)N1CCN(c2ncnc3[nH]c(-c4ccc(C#N)cc4)cc23)CC1(C)C)c1cccc(F)c1` [P-0688, 4-[6-(4-cyanophenyl)-7H-pyrrolo[2,3-d]pyrimidin-4-yl]-N-[(1S)-1-(3-fluorophenyl)ethyl]-2,2-dimethyl-piperazine-1-carboxamide], the IC50 lay in the range of 1 to 10 µM on c-kit kinase and 0.0001 to 1 µM at c-kit mutant D816V.
On the same counts, the results for `C[C@H](NC(=O)N1CCN(c2ncnc3[nH]c(-c4ccc(C#N)cc4)cc23)CC1(C)C)c1cccc(Cl)c1` [P-0689, N-[(1S)-1-(3-chlorophenyl)ethyl]-4-[6-(4-cyanophenyl)-7H-pyrrolo[2,3-d]pyrimidin-4-yl]-2,2-dimethyl-piperazine-1-carboxamide] are 0.0001 to 1 µM and 0.0001 to 1 µM.
On the same counts, the results for `C[C@H](NC(=O)N1CCN(c2ncnc3[nH]c(-c4ccc(C#N)cc4)cc23)C[C@H]1C)c1ccc(F)cc1` [P-0690, (2R)-4-[6-(4-cyanophenyl)-7H-pyrrolo[2,3-d]pyrimidin-4-yl]-N-[(1S)-1-(4-fluorophenyl)ethyl]-2-methyl-piperazine-1-carboxamide] are 10 to 200 µM and 0.0001 to 1 µM.
Consider `C[C@H](NC(=O)N1CCN(c2ncnc3[nH]c(-c4ccc(C#N)cc4)cc23)C[C@H]1C)c1ccc(Cl)cc1` [P-0691, (2R)-N-[(1S)-1-(4-chlorophenyl)ethyl]-4-[6-(4-cyanophenyl)-7H-pyrrolo[2,3-d]pyrimidin-4-yl]-2-methyl-piperazine-1-carboxamide], for which the figures for the IC50 at c-kit kinase and at c-kit mutant D816V were 10 to 200 µM and 0.0001 to 1 µM, respectively.
On the same counts, the results for `COc1cccc([C@H](C)NC(=O)N2CCN(c3ncnc4[nH]c(-c5ccc(C#N)cc5)cc34)C[C@H]2C)c1` [P-0692, (2R)-4-[6-(4-cyanophenyl)-7H-pyrrolo[2,3-d]pyrimidin-4-yl]-N-[(1S)-1-(3-methoxyphenyl)ethyl]-2-methyl-piperazine-1-carboxamide] are 1 to 10 µM and 0.0001 to 1 µM.
The like results for `C[C@H](NC(=O)N1CCN(c2ncnc3[nH]c(-c4ccc(C#N)cc4)cc23)C[C@H]1C)c1cccc(Cl)c1` [P-0694, (2R)-N-[(1S)-1-(3-chlorophenyl)ethyl]-4-[6-(4-cyanophenyl)-7H-pyrrolo[2,3-d]pyrimidin-4-yl]-2-methyl-piperazine-1-carboxamide] were, in that order, 10 to 200 µM and 0.0001 to 1 µM.
In the case of `COc1cc(-c2cc3c(N4CCN(C(=O)N[C@@H](C)c5ccc(F)cc5)[C@H](C)C4)ncnc3[nH]2)ccn1` [P-0695, (2R)-N-[(1S)-1-(4-fluorophenyl)ethyl]-4-[6-(2-methoxy-4-pyridyl)-7H-pyrrolo[2,3-d]pyrimidin-4-yl]-2-methyl-piperazine-1-carboxamide], the results for the IC50 on c-kit kinase and at c-kit mutant D816V were 10 to 200 µM and 0.0001 to 1 µM, respectively.
Take `C[C@H](NC(=O)N1CCN(c2ncnc3[nH]c(-c4ccc(C#N)cc4)cc23)CC1)c1cccc(Cl)c1` [P-0697, N-[(1S)-1-(3-chlorophenyl)ethyl]-4-[6-(4-cyanophenyl)-7H-pyrrolo[2,3-d]pyrimidin-4-yl]piperazine-1-carboxamide]: the IC50 at c-kit kinase lay in the range of 1 to 10 µM; at c-kit mutant D816V it was 0.0001 to 1 µM.
On the same counts, the results for `C[C@H](NC(=O)N1CCN(c2ncnc3[nH]c(-c4ccc(F)cc4)cc23)CC1(C)C)c1ccc(Cl)cc1` [P-0700, N-[(1S)-1-(4-chlorophenyl)ethyl]-4-[6-(4-fluorophenyl)-7H-pyrrolo[2,3-d]pyrimidin-4-yl]-2,2-dimethyl-piperazine-1-carboxamide] are 1 to 10 µM and 0.0001 to 1 µM.
As for `O=C(NCc1cccs1)N1CCN(c2ncnc3cc(-c4ccc(F)cc4)sc23)CC1` [P-0709, 4-[6-(4-fluorophenyl)thieno[3,2-d]pyrimidin-4-yl]-N-(2-thienylmethyl)piperazine-1-carboxamide], the IC50 lay in the range of 10 to 200 µM at c-kit kinase and 0.0001 to 1 µM on c-kit mutant D816V.
